Results taken from patent US20060057669A1, “Inactive transcription factor tif-ia and uses thereof” (priority 2002, published 2006).

Experiments:
HEK293T cells = assay: Quantitative fluorimetric viability assay with calcein-AM; assay type: cell-based; conditions: 24, 36, 48 and 60 hr after transfection; 2 μM calcein-AM
TIF-IA = assay: In vitro transcription assay of TIF-IA purified from treated cells, in nuclear extract from density-arrested FM3A cells; assay type: biochemical
Description: (A) TIF-IA activity in starved and serum-stimulated cells. The indicated amounts of TIF-IA purified from starved NIH3T3 cells (lanes 2-4) or cells that were stimulated by serum in the absence (lanes 5-7) or presence of PD98059 (lanes 8-10) were assayed for their capability to restore transcription of a nuclear extract from density-arrested FM3A cells (lane 1). The amount and purity of TIF-IA were estimated on silver-stained SDS-polyacrylamide gels (data not shown).
FLAG-tagged TIF-IA was purified from untreated (lanes 2-3) or PD98059-treated HEK293T cells (lanes 4-5). The indicated amounts of TIF-IA were assayed for their capability to restore transcription of a nuclear extract from density-arrested FM3A cells (lane 1). The amount of TIF-IA was estimated on silver-stained SDS-polyacrylamide gels (data not shown).
20 and 40 ng of TIF-IA that was immunopurified from untreated (lanes 2, 3) and rapamycin-treated cells (lanes 4, 5) were added to transcription reactions containing nuclear extracts (30 μg) from density-arrested cells.
Nuclear extracts were prepared from exponentially growing (8×10^5 cells/ml), density-arrested or PD98059-treated (CN Bioscience, Bad Soden, Germany) 40 μM, 0.5 hr) or rapamycin-treated FM3A cells (ATCC, Manassas, USA). […] After incubation for 60 min at 30° C., RNA was extracted and analyzed on non-denaturing 5% polyacrylamide gels […]

| Compound | cellular growth rate by calcein-AM staining (HEK293T cells) | transcriptional activity of TIF-IA from treated cells (TIF-IA; NIH3T3 cells stimulated with serum in the presence of PD98059) | transcriptional activity of TIF-IA from treated cells (TIF-IA; unsynchronized cells treated for 30 min with PD98059) |
| --- | --- | --- | --- |
| TIF-IA: wild-type human transcription initiation factor TIF-IA, accession No. AJ272050 | did not affect cell viability and growth | – | – |
| COc1cccc(-c2cc(=O)c3ccccc3o2)c1N [PD98059] | – | TIF-IA remained inactive | transcriptionally inactive |
